Patent publication US20100160250A1, “METHOD FOR TREATING INFLAMMATORY CONDITIONS” (priority 2008, published 2010)

Columns and labels:
Assay type in all cases: cell-based
[1] = molecular target: T1, P2X7 receptor (Homo sapiens, UniProt Q99572); test: IL-1β secretion assay in LPS-primed human monocytes stimulated with ATP; design: monocytes were selected by adherence to the tissue culture plastic; endogenous in cells; host or cells: LPS-primed adherent monocytes from human peripheral blood; details: human peripheral blood monocytes, 1 ng/mL LPS, 1 mM ATP, 30 min; read-out: IL1β inhibition IC50
T1 sequence (Q99572 1-595): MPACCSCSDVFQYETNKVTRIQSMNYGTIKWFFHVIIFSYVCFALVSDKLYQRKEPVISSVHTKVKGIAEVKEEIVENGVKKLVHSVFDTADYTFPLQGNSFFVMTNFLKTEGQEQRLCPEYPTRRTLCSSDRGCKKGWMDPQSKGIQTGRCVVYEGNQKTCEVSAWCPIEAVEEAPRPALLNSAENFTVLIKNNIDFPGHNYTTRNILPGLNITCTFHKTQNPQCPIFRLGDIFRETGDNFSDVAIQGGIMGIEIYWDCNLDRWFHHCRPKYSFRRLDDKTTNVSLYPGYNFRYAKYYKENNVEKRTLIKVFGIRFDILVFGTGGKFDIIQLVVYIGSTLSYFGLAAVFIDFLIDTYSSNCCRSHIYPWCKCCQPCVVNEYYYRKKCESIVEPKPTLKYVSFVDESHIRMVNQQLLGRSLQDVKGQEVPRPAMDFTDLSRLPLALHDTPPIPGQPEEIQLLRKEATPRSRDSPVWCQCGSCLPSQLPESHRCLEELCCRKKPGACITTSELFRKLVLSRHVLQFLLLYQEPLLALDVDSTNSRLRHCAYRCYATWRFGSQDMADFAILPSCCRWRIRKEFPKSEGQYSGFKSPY
Source text: Inhibition of IL-1β release by antagonists of the P2X7 receptor is a model of ameliorating inflammatory condition. This assay is an in vitro assay of cytokine secretion that can be used to evaluate the ability of compounds of this invention of Formula I to inhibit cytokine secretion, as the secretion of cytokines contributes to the inflammation in asthma, COPD and other pulmonary diseases, as well as in RA, IBD and neuropathic pain.
Peripheral blood from healthy human volunteers was collected in an acid-citrate-dextrose (ACD) buffer to prevent clotting, layered over a Ficoll-Paque gradient (1:1), and centrifuged for 45 minutes at 1200 rpm. The interface between the plasma layer and the Ficoll layer (buffy coat) was then diluted in RPMI 1640/10% heat inactivated FBS and centrifuged for 10 minutes at 1500 rpm. The resultant pellet was re-suspended in media containing 1 ng/mL lipopolysaccharide (LPS) and plated at a density of 500,000 cells/mL. After a 3 hour incubation (37° C., 5% CO2, humidified air) monocytes were selected by adherence to the tissue culture plastic by washing wells with media. Following the media wash, cells were incubated for 2 minutes with the antagonists prior to the addition of 1 mM ATP. Cells were allowed to incubate with compounds for 30 minutes at 37° C. after which the supernatant was removed for immediate determination of IL-1β concentration. The concentration of IL-1β in cell supernatants was measured using the Bio-Plex (Bio-Rad) system according to manufacture's instructions and inhibition constants were calculated using Prism Graph Pad version 3.03 (San Diego, Calif.). IC50 values represent the concentrations of antagonist compounds necessary to inhibit 50% of the activity (calcium dependent fluorescence or IL-1β concentration) elicited by a given concentration of ATP.

[2] = molecular target: T1, P2X7 receptor; test: Calcium signalling (Fluo-3, FLIPR) in 1321N1 cells expressing P2X7, BzATP challenge; design: expressed in transfected cells; host or cells: human astrocytoma 1321N1 cells; details: human astrocytoma 1321N1 cells expressing P2X7, 30 uM BzATP; read-out: Inhibition of Ca^+2 signaling IC50
Procedure: Inhibition of Ca^2+ influx into the cell by antagonists of the P2X7 receptor measures inhibition of the ion channel activity of the P2X7 receptor.
Human astrocytoma (1321N1) cells expressing P2X7 were grown to confluency in 96-well plates. Cells were loaded with a solution of Fluo-3 AM (2.5 μM final concentration) in an assay buffer consisting of 10 mM KCl, 118 mM NaCl, 0.25 mM CaCl2, 1 mM MgCl2, 20 mM HEPES, 10 mM glucose, pH 7.4. After a 60-minute incubation with Fluo-3 AM at 25° C., cells were washed and stimulated with serially diluted concentrations of compound and then challenged with 30 uM BzATP. Calcium fluorescence was measured using the FLIPR 89 (Molecular Devices Corp., Sunnyvale, Calif.) and results were calculated using Prism Graph Pad version 3.03 (San Diego, Calif.). Inhibition of calcium dependent fluorescence indicates the assayed compound is an antagonist of the P2X7 receptor.

[3] = molecular target: T1, P2X7 receptor; test: Pore formation assay (Yo-Pro dye influx) in 1321N1 cells expressing P2X7, BzATP challenge; design: expressed in transfected cells; host or cells: human astrocytoma 1321N1 cells; details: 1321N1 cells expressing P2X7, 100 uM BzATP, Yo-Pro fluorescence after 90 minutes
Procedure: Inhibition of Yo-Pro fluorescent dye influx into the cells following P2X7 receptor activation provides a read-out of compounds potency in inhibition of pore formation activity of the P2X7 receptor.
Assay was conducted essentially as in Alcaraz et al. Human astrocytoma (1321N1) cells expressing P2X7 were seeded in 96-well plates at a density of 200,000 cells/well in assay buffer consisting of 5 mM KCl, 140 mM KAspartate, 10 mM glucose, 10 mM Hepes pH 7.0, 10 mM N-methyl-D-glucoseamine, 1 mM EDTA and 1 uM Yo-Pro dye. Cells were exposed to serially diluted concentrations of compound and then challenged with 100 uM BzATP. Yo-Pro fluorescence was measured after 90 minutes. Inhibition of Yo-Pro dependent fluorescence indicates the assayed compound is an antagonist of the P2X7 receptor.

Structure (SMILES)	IC50 [1] [nM]	IC50 [2] [nM]	IC50 [3] [nM]
O=C(Nc1ncnc2c1ncn2[C@@H]1O[C@H](CO)C2OC3(CCCCC3)O[C@@H]21)NC1CCCCC1 (stereo partly drawn) [Compound 39, 6-(cyclohexylurea)adenosine 2′,3′-cyclohexyl ketal]	65	477	346
O=C(Nc1ncnc2c1ncn2[C@@H]1O[C@H](C(=O)O)C2OC3(CCCCC3)O[C@@H]21)NC12CC3CC(CC(C3)C1)C2 (stereo partly drawn) [Compound 38]	98	597	52
CCNC(=O)OC[C@H]1O[C@@H](n2cnc3c(NC(=O)NC4CCCCC4)ncnc32)[C@H]2OC3(CCCCC3)OC12 (stereo partly drawn) [Compound 46]	99	852	234

More lines, in order of falling IC50 [1], values ahead:

IC50 [1] [nM]	IC50 [2] [nM]	IC50 [3] [nM]	Structure (SMILES)
69	295	152	CCNC(=O)[C@H]1O[C@@H](n2cnc3c(NC(=O)NC4CCCCC4)ncnc32)[C@H]2OC3(CCCCC3)OC12 (stereo partly drawn) [Compound 43, 6-(cyclohexylurea)adenosine 2′,3′-cyclohexyl ketal 5′-ethyl carboxamide]
58	404	257	O=C(Nc1ncnc2c1ncn2[C@@H]1O[C@H](C(=O)NCCO)C2OC3(CCCCC3)O[C@@H]21)NC1CCCCC1 (stereo partly drawn) [Compound 44, 6-(cyclohexylurea)adenosine 2′,3′-cyclohexyl ketal 5′-(2-hydroxy)ethyl carboxamide]
